Test results as given in patent publication US7504420B2, “Compounds which inhibit beta-secretase activity and methods of use” (CoMentis, Inc., priority 2005, dated 2009).

How the values were obtained:
[1] = molecular target: memapsin 2 (Homo sapiens, UniProt P56817); assay: Inhibition of memapsin 2 catalytic activity (Ki); format: biochemical; details: memapsin 2, pH 4, 37° C.; read-out: M2K
Outline: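 Run at 37 °C and pH 4: compound and enzyme pre-incubated 20 min before FS-2 fluorogenic substrate started hydrolysis,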

[2] = molecular target: T1, memapsin 1 (Homo sapiens, UniProt Q9Y5Z0); assay: Inhibition of memapsin 1 catalytic activity (Ki); format: biochemical; details: memapsin 1, pH 4.0, 37° C.; read-out: M1K
T1 sequence (Q9Y5Z0 63-518): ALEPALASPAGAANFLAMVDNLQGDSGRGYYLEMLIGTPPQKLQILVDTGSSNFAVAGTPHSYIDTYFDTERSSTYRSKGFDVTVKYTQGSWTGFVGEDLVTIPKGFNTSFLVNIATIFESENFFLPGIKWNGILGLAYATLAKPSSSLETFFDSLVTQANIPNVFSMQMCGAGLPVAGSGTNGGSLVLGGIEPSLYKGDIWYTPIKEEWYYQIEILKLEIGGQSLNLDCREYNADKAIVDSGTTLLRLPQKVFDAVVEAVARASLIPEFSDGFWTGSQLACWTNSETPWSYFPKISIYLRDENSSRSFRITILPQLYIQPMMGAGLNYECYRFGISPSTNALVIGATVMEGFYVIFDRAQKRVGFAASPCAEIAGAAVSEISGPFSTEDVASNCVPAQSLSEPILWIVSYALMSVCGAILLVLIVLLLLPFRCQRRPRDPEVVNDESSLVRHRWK
Experimental: A substrate peptide NH3-ELDLAVEFWHDR-CO2 (SEQ ID NO.:1) (used for inhibition assay of memapsin 2, memapsin 1, and cathepsin D) was dissolved at 2 mg/ml in DMSO and diluted 1:100 in 0.1 M sodium acetate, pH 4.0 just prior to assay. Inhibitor dissolved in DMSO was diluted into 0.1 M sodium acetate, pH 4.0 (1:100 dilution). A […] aliquot of the inhibitor solution in pH 4 buffer was combined with […] of 0.1 M sodium acetate containing 100-200 nM of memapsin 1, memapsin 2, or cathepsin D. Following a pre-incubation at 37° C., the proteolytic assay was initated by addition of […] of the substrate diluted into pH 4 buffer, and incubation continued at 37° C. Aliquots were removed at time intervals, and combined with an equal volume of MALDI-TOF matrix (α-hydroxycinnamic acid in acetone, 20 mg/ml) and immediately spotted in duplicate onto a stainless-steel MALDI sample plate. MALDI-TOF mass spectrometry was performed on a PE Biosystems Voyager DE instrument at the Molecular Biology Resource Center on campus. The instrument was operated at 25,000 accelerating volts in positive mode with a 150 ns delay. Ions with a mass-to-charge ratio (m/z) were detected in the range of 650-2000 atomic mass units. Data were analyzed by the Voyager Data Explorer module to obtain ion intensity data for mass species of substrates and corresponding products in a given mixture. Relative product formation was calculated as the ratio of signal intensity of the product to the sum of signal intensities of both product and the corresponding substrate. Relative product formed per unit time was obtained from non-linear regression analysis of the data representing the initial 15% formation of product using the model: 1−e^−kT, where k was the relative hydrolytic rate constant and T was time in seconds. Alternatively, relative hydrolytic rates were determined using a fluorogenic cleavage assay (Ermolieff, J. et al., Biochemistry, 39: 12450-12456 (2000)). Initial rates from either method were expressed relative to uninhibited controls and the inhibition constant Ki was determined by a non-linear fit to a tight-binding model of competitive inhibition (Bieth, J., Bayer-Symposium V: Proteinase Inhibitors, pp 463-469, Spinger-Varlag, Berlin (1994)). Results are shown in Table 1 above (M2K, CDK, and M1K columns represent, respectively, the K1 values obtained for memapsin 2, cathepsin D and memapsin 1).

[3] = tested on: Aβ production in Chinese hamster ovary cells that over-express human APP695 with the London and Swedish mutations; assay: Cellular Aβ IC50 determination (Aβ40 sandwich ELISA); details: Cricetulus griseus, CHO, 24 h, read-out: Cell, Aβ40, CHO cells over-expressing human APP695 (London and Swedish mutations), 24 h
[4] = molecular target: cathepsin D (Homo sapiens, UniProt P07339); assay: Inhibition of cathepsin D catalytic activity (Ki); format: biochemical; details: pH 4.0, 37° C., read-out: CDK
cathepsin D, sequence (P07339 65-412, species assumed): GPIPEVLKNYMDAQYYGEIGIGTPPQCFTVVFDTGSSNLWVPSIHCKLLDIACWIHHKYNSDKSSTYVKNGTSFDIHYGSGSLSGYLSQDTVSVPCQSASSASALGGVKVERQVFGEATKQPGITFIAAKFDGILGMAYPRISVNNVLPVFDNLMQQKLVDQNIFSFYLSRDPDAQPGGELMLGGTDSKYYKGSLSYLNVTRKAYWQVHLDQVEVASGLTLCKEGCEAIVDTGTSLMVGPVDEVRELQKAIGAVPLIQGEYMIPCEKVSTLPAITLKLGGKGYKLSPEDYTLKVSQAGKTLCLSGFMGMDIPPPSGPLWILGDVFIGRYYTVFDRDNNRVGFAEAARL

memapsin 2, sequence (P56817 46-501): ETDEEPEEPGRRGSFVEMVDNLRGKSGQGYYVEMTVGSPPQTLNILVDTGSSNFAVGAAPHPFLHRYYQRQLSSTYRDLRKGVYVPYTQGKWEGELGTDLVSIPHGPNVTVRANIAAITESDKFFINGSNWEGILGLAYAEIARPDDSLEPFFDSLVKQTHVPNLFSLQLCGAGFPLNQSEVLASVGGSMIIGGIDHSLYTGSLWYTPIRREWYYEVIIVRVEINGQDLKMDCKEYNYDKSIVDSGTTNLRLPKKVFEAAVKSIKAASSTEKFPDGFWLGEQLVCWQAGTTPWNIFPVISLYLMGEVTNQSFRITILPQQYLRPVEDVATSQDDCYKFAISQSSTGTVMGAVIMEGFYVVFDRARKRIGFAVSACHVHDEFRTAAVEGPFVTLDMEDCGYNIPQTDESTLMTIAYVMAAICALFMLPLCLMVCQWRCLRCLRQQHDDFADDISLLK

Ki [1] [nM]	Ki [2] [nM]	IC50 [3] [nM]	Ki [4] [nM]	Structure (SMILES)
< 300	< 300	< 1000	< 300	CC(NC(=O)c1cc(C(=O)NC(Cc2ccccc2)C(O)CNCc2ccccc2O)cc(N(C)S(C)(=O)=O)c1)c1ccccc1 (stereo not drawn) [N1-(3-hydroxy-4-(2-hydroxybenzylamino)-1-phenylbutan-2-yl)-5-(N-methylmethylsulfonamido)-N3-(1-phenylethyl)isophthalamide]
< 300	301 to 500	< 1000	< 300	COc1ccccc1CNCC(O)C(Cc1ccccc1)NC(=O)c1cc(C(=O)NC(C)c2ccccc2)cc(N(C)S(C)(=O)=O)c1 (stereo not drawn) [N1-(3-hydroxy-4-(2-methoxybenzylamino)-1-phenylbutan-2-yl)-5-(N-methylmethylsulfonamido)-N3-(1-phenylethyl)isophthalamide]
301 to 500	> 501	> 5000	> 501	CC(NC(=O)c1cc(C(=O)NC(Cc2ccccc2)C(O)CNN(C)c2ccccc2)cc(N(C)S(C)(=O)=O)c1)c1ccccc1 (stereo not drawn) [N1-(3-hydroxy-4-(2-methyl-2-phenylhydrazinyl)-1-phenylbutan-2-yl)-5-(N-methylmethylsulfonamido)-N3-(1-phenylethyl)isophthalamide]
< 300	> 501	< 1000	> 501	COc1cccc(CNCC(O)C(Cc2ccccc2)NC(=O)c2cc(C(=O)NC(C)c3cccnc3)cc(N(C)S(C)(=O)=O)c2)c1 (stereo not drawn) [N1-(3-hydroxy-4-(3-methoxybenzylamino)-1-phenylbutan-2-yl)-5-(N-methylmethylsulfonamido)-N3-(1-(pyridin-3-yl)ethyl)isophthalamide]
< 300	< 300	< 1000	< 300	CCC(NC(=O)c1cc(C(=O)NC(Cc2ccccc2)C(O)CNCc2cccc(OC)c2)cc(N(C)S(C)(=O)=O)c1)c1ccccc1 (stereo not drawn) [N1-(3-hydroxy-4-(3-methoxybenzylamino)-1-phenylbutan-2-yl)-5-(N-methylmethylsulfonamido)-N3-(1-phenylpropyl)isophthalamide]
301 to 500	< 300	< 1000	< 300	COc1cccc(CNCC(O)C(Cc2ccccc2)NC(=O)c2cc(C(=O)NC(C)c3ccccc3)cc([N+](=O)[O-])c2)c1 (stereo not drawn) [N1-(3-hydroxy-4-(3-methoxybenzylamino)-1-phenylbutan-2-yl)-5-nitro-N3-(1-phenylethyl)isophthalamide]
> 501	> 501	> 5000	> 501	COc1cccc(CNCC(O)C(Cc2ccccc2)NC(=O)c2cccc(C(=O)NC(C)c3cccnc3)c2)c1 (stereo not drawn) [N1-(3-hydroxy-4-(3-methoxybenzylamino)-1-phenylbutan-2-yl)-N3-(1-(pyridin-3-yl)ethyl)isophthalamide]
< 300	> 501	1000 to 5000	< 300	COc1cccc(CNCC(O)C(Cc2ccccc2)NC(=O)c2cc(C(=O)NCc3cccc(OC)c3)cc(N(C)S(C)(=O)=O)c2)c1 (stereo not drawn) [N1-(3-hydroxy-4-(3-methoxybenzylamino)-1-phenylbutan-2-yl)-N3-(3-methoxybenzyl)-5-(N-methylmethylsulfonamido)isophthalamide]
> 501	> 501	> 5000	< 300	COc1cccc(CNCC(O)C(Cc2ccccc2)NC(=O)c2cccc(C(=O)N(C)Cc3cc(C)no3)c2)c1 (stereo not drawn) [N1-(3-hydroxy-4-(3-methoxybenzylamino)-1-phenylbutan-2-yl)-N3-methyl-N3-((3-methylisoxazol-5-yl)methyl)isophthalamide]
< 300	> 501	< 1000	< 300	COc1cccc(CNCC(O)C(Cc2ccccc2)NC(=O)c2cccc(C(=O)N(C)Cc3nc(C)cs3)c2)c1 (stereo not drawn) [N1-(3-hydroxy-4-(3-methoxybenzylamino)-1-phenylbutan-2-yl)-N3-methyl-N3-((4-methylthiazol-2-yl)methyl)isophthalamide]
< 300	301 to 500	< 1000	< 300	Cc1cccc(CNCC(O)C(Cc2ccccc2)NC(=O)c2cc(C(=O)NC(C)c3ccccc3)cc(N(C)S(C)(=O)=O)c2)c1 (stereo not drawn) [N1-(3-hydroxy-4-(3-methylbenzylamino)-1-phenylbutan-2-yl)-5-(N-methylmethylsulfonamido)-N3-(1-phenylethyl)isophthalamide]
> 501	> 501	< 1000	< 300	Cc1cccc(CNCC(O)C(Cc2ccccc2)NC(=O)c2cccc(C(=O)N(C)Cc3nc(C)cs3)c2)c1 (stereo not drawn) [N1-(3-hydroxy-4-(3-methylbenzylamino)-1-phenylbutan-2-yl)-N3-methyl-N3-((4-methylthiazol-2-yl)methyl)isophthalamide]
< 300	> 501	< 1000	301 to 500	Cc1csc(CNCC(O)C(Cc2ccccc2)NC(=O)c2cc(C(=O)NC(C)c3ccccc3)cc(N(C)S(C)(=O)=O)c2)n1 (stereo not drawn) [N1-(3-hydroxy-4-((4-methylthiazol-2-yl)methylamino)-1-phenylbutan-2-yl)-5-(N-methylmethylsulfonamido)-N3-(1-phenylethyl)isophthalamide]
< 300	301 to 500	< 1000	< 300	Cc1csc(CN(C)C(=O)c2cccc(C(=O)NC(Cc3ccccc3)C(O)CNCc3cncc(C(C)C)c3)c2)n1 (stereo not drawn) [N1-(3-hydroxy-4-((5-isopropylpyridin-3-yl)methylamino)-1-phenylbutan-2-yl)-N3-methyl-N3-((4-methylthiazol-2-yl)methyl)isophthalamide]
< 300	301 to 500	< 1000	< 300	Cc1cncc(CNCC(O)C(Cc2ccccc2)NC(=O)c2cc(C(=O)NC(C)c3ccccc3)cc(N(C)S(C)(=O)=O)c2)c1 (stereo not drawn) [N1-(3-hydroxy-4-((5-methylpyridin-3-yl)methylamino)-1-phenylbutan-2-yl)-5-(N-methylmethylsulfonamido)-N3-(1-phenylethyl)isophthalamide]
301 to 500	301 to 500	< 1000	> 501	Cc1cccc(CNCC(O)C(Cc2ccccc2)NC(=O)c2cc(C(=O)NC(C)c3ccccc3)cc(N(C)S(C)(=O)=O)c2)n1 (stereo not drawn) [N1-(3-hydroxy-4-((6-methylpyridin-2-yl)methylamino)-1-phenylbutan-2-yl)-5-(N-methylmethylsulfonamido)-N3-(1-phenylethyl)isophthalamide]
< 300	< 300	< 1000	< 300	CC(NCC(O)C(Cc1ccccc1)NC(=O)c1cc(C(=O)NC(C)c2ccccc2)cc(N(C)S(C)(=O)=O)c1)c1ccc(F)cc1 (stereo not drawn) [N1-(4-(1-(4-fluorophenyl)ethylamino)-3-hydroxy-1-phenylbutan-2-yl)-5-(N-methylmethylsulfonamido)-N3-(1-phenylethyl)isophthalamide]
< 300	> 501	< 1000	< 300	CC(NC(=O)c1cc(C(=O)NC(Cc2ccccc2)C(O)CNCc2cc(F)cc(F)c2)cc(N(C)S(C)(=O)=O)c1)c1ccccc1 (stereo not drawn) [N1-(4-(3,5-difluorobenzylamino)-3-hydroxy-1-phenylbutan-2-yl)-5-(N-methylmethylsulfonamido)-N3-(1-phenylethyl)isophthalamide]
